Results on nine molecules are retold here after article PMC5964033 (Journal of inorganic biochemistry, 2018).

Several values for one entry are separate records, joined by “and”; a condition that tells them apart may be missing. Equal entries are not always repeated. Entries after “also recorded” stand apart in the source; their conditions may differ. Where two headings read alike, the source gives them in different places.

Series [1] deals with T1, CYP2J2 (Homo sapiens, UniProt P51589).
T1 sequence (P51589 1-502): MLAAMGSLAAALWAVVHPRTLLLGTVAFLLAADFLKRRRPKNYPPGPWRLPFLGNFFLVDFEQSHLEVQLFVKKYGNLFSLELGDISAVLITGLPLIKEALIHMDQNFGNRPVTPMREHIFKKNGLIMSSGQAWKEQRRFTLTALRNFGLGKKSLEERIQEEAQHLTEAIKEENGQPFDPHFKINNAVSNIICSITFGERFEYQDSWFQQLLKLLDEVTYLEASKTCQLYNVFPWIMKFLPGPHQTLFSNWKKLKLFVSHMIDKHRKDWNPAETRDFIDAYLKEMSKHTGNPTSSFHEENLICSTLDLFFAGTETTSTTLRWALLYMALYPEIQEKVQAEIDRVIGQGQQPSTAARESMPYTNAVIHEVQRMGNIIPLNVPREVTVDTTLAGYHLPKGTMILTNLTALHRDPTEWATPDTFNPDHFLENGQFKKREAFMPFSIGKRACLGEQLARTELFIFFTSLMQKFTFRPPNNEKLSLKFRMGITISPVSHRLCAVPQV
The series is classed as in vitro ADME.

The target in series [2] is T1, CYP2J2. The following applies: at saturating concentrations, CYP2J2-NDs.
In series [3] the target is T1, CYP2J2. In words: Inhibition of CYP2J2-mediated AEA metabolism by pCBs. The series is classed as biochemical. The following applies: for Type of AEA Metabolism Inhibition / Ki: 30 µM pCB; for Type of AEA Metabolism Inhibition: model of inhibition; for Ki: CYP2J2-ND/CPR; for apparent Vmax of AEA metabolism, % of the uninhibited enzyme: in the presence of 30 µM pCB.
Series [4] deals with T1, CYP2J2. The conditions noted are these: formation of mono-oxygenated product; for Vmax: 5–60 µM pCB, 30 min, 37°C.
Series [5] deals with T1, CYP2J2. In words: Identification of pCB metabolites formed by CYP2J2. The series is classed as in vitro ADME. The following applies: major mono-oxygenated product(s) of CYP2J2 metabolism.
In series [6] the target is T1, CYP2J2. Briefly: biochemical.
For series [7], the system named is fatty acid amide hydrolase (FAAH). The following applies: cited from earlier work.
In the next series the test system is Rhesus monkeys. The conditions noted are these: cited from earlier work.
Series [8] deals with T1, CYP2J2. The following applies: directly from Soret titration or through inhibition of ebastine binding.
A further series deals with humans. The following applies: cited from earlier work.
The test system of the next series is other animal models. The following applies: cited from earlier work.
Substrate in series [9]: CCCCC/C=C\C/C=C\C/C=C\C/C=C\CCCC(=O)NCCO
In words: not read. The series is classed as in vitro ADME. The conditions noted are these: other: total EET-EAs formed, CYP2J2-ND/CPR; pH 7.4.

Substrate in series [10]: CCCCCc1cc(O)c(C/C=C(\C)CCC=C(C)C)c(O)c1
Briefly: not read. The conditions noted are these: other: formation of mono-oxygenated product; pH 7.4; 37.0 °C.

The mark [11] stands for this setting: read-out: Ki, AEA Metabolism Inhibition.

Take `CCCCC/C=C\C/C=C\C/C=C\C/C=C\CCCC(=O)NCCO` [AEA, anandamide]: the “Metabolite(s)” value at CYP2J2 [1] (AEA metabolism by CYP2J2-NDs) was “EET-EAs”. Moreover, on CYP2J2 [1] (total EET-EAs formed, CYP2J2-ND/CPR), the Vmax was 135 ± 14.0 pmol · min^−1 · nmolCYP2J2^−1 and 135 ± 14 pmol · min^−1 · nmolCYP2J2^−1. On CYP2J2 [2], the high-spin shift result is “did not produce a significant change in the high-spin content”.

The Ki is the dissociation constant of the complex between target and ligand, obtained from inhibition or displacement. As for `CCCCCc1cc(O)c2c(c1)OC(C)(CCC=C(C)C)C=C2` (stereo not drawn) [CBC, cannabichromene], on CYP2J2 [3], the “Type of AEA Metabolism Inhibition” value was “Noncompetitive” and the “apparent Vmax of AEA metabolism, % of the uninhibited enzyme” value is 20–45%. For the same molecule, the affinity at CYP2J2 [3] (Ki, AEA Metabolism Inhibition) corresponds to a Ki of 21.1 ± 1.4 µM. Also, the high-spin shift entry at CYP2J2 [2] is given as “did not produce a significant change in the high-spin content”. For the same molecule, the Vmax at CYP2J2 [4] is 371 ± 134 pmol · min^−1 · nmolCYP2J2^−1. For the same molecule, on CYP2J2 [5], the “Metabolite(s)” value is reported as -1”-OH.

As a reminder, the Kd is a measure of binding affinity in units of concentration. High values mean a looser complex, low ones a tighter complex. Consider `C=C(C)[C@@H]1CCC(C)=C[C@H]1c1c(O)cc(CCCCC)cc1O` [CBD, cannabidiol, reference compound], for which the Kd on CYP2J2 [6] was determined as 11.5 ± 3 µM. Moreover, on CYP2J2 [3], the “Type of AEA Metabolism Inhibition” value is “Noncompetitive” and the “apparent Vmax of AEA metabolism, % of the uninhibited enzyme” value is recorded as 20–45%. The Ki at CYP2J2 [3] (Ki, AEA Metabolism Inhibition) was found to be 16.9 ± 1.1 µM. Moreover, the high-spin shift on CYP2J2 [2] was found to be 32%. The “inhibition of FAAH” value in [7] is on record as “weakly inhibited”. Besides, the Vmax on CYP2J2 [4] is listed as 372 ± 100 pmol · min^−1 · nmolCYP2J2^−1. The “Metabolite(s)” value at CYP2J2 [5] is listed as -7-OH + -1”-OH.

`CCCCCc1cc(O)c(C/C=C(\C)CCC=C(C)C)c(O)c1` [CBG, cannabigerol] returned a dissociation constant Kd on CYP2J2 [6] of 11.1 ± 1.2 µM. For the same molecule, at CYP2J2 [3], the “Type of AEA Metabolism Inhibition” value is listed as “competitively; also recorded: Competitive”. On CYP2J2 [3] (Ki, AEA Metabolism Inhibition), this molecule came in with a Ki of 10.8 ± 1.4 µM. Besides, the high-spin shift on CYP2J2 [2] worked out at 48%. Further, the Vmax on CYP2J2 [4] is listed as 123 ± 14 pmol · min^−1 · nmolCYP2J2^−1. The “Metabolite(s)” value at CYP2J2 [5] is -1”-OH.

`CCCCCc1cc(O)c2c(c1)OC(C)(C)c1ccc(C)cc1-2` [CBN, cannabinol]: at CYP2J2 [3], the “Type of AEA Metabolism Inhibition” value was “Noncompetitive” and the “apparent Vmax of AEA metabolism, % of the uninhibited enzyme” value is reported as 20–45%. Further, affinity at CYP2J2 [3] (Ki, AEA Metabolism Inhibition) was put at a Ki of 19.4 ± 2 µM. For the same molecule, the high-spin shift at CYP2J2 [2] is 38%. In addition, at CYP2J2 [5], the “Metabolite(s)” value is -1’-OH or -11-OH.

As a reminder, the Km is the substrate concentration at which the rate is half of its maximum. Turning to `CCCCCc1cc(O)c2c(c1)OC(C)(C)[C@@H]1CC=C(C)C[C@@H]21` [Δ8-THC, Δ8-tetrahydrocannabinol], on CYP2J2 [3], the “Type of AEA Metabolism Inhibition” value is “Noncompetitive” and the “apparent Vmax of AEA metabolism, % of the uninhibited enzyme” value is given as 20–45%. For the same molecule, the Ki on CYP2J2 [3] (setting [11]) was 20.2 ± 1.9 µM. For the same molecule, the high-spin shift result at CYP2J2 [2] was “did not produce a significant change in the high-spin content”. Besides, at CYP2J2 [4], the Km turned out to be 8.52 ± 5.3 µM and the Vmax was 80.9 ± 14.3 pmol · min^−1 · nmolCYP2J2^−1. The “Metabolite(s)” value on CYP2J2 [5] is listed as -1’-OH.

On to `CCCCC(O)c1cc(O)c2c(c1)OC(C)(C)C1CC=C(C)CC21` (stereo not drawn) [Δ8-THC-1’-OH], for which the “induction of behavioral changes associated with cannabis use” value in the series with Rhesus monkeys is on record as “least effective”.

Consider `CCCCCc1cc(O)c2c(c1)OC(C)(C)[C@@H]1CCC(C)=C[C@@H]21` [Δ9-THC, Δ9-tetrahydrocannabinol, reference compound], for which, on CYP2J2 [3], the “Type of AEA Metabolism Inhibition” value is “Noncompetitive”; the “apparent Vmax of AEA metabolism, % of the uninhibited enzyme” value is 20% and 20–45%. The inhibition constant (Ki) on CYP2J2 [3] (setting [11]) was found to be 9.86 ± 0.45 µM. Also, the high-spin shift result at CYP2J2 [2] is listed as “did not produce a significant change in the high-spin content”. Moreover, the binding affinity entry at CYP2J2 [8] is recorded as “weakest”. Further, on CYP2J2 [4], the Km was determined as 11.9 ± 4.8 µM and the Vmax was 211 ± 28 pmol · min^−1 · nmolCYP2J2^−1. Also, the “effect on heart rate in humans” value in the series on humans is on record as “induces tachycardia”. For the same molecule, the “Metabolite(s)” value at CYP2J2 [5] is listed as -1’-OH. Also, the “effect on heart rate in other animal models” value in the series on other animal models was “induces bradycardia”.

B1: CYP2J2 (Homo sapiens) (protein)
chain: T1 sequence (P51589 1-502)
B1: the Km was 30.9 ± 7.3 µM in the series “not read [9]” and 8.27 ± 3.24 µM in “not read [10]”.
